In patent US20090281111A1 (Fabre-Kramer Pharmaceuticals, Inc., priority 2008, published 2009):

Tests used:
5-HT1A receptor = molecular target: T1, 5-HT1A receptor (Homo sapiens, UniProt P08908); conditions: cited from earlier work
T1 sequence (P08908 1-422): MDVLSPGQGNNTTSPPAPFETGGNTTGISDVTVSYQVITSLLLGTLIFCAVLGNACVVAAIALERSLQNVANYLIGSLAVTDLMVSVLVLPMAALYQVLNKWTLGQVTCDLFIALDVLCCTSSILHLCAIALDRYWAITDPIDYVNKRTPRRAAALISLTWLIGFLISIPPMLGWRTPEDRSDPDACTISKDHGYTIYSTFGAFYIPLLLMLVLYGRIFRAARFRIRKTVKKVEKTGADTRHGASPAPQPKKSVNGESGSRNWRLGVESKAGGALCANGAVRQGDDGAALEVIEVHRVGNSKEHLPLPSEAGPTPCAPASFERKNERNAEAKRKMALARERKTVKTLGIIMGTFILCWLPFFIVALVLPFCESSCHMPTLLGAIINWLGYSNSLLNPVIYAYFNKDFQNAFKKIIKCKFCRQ

[1] = 3-OH gepirone concentrations in plasma after administration of gepirone; format: in vivo; conditions: human subjects administered a dose of gepirone, FIG. 2
Experimental: “Time (H)” represents time after administration.
Each sample corresponds to a 0.5 ml plasma sample, extracted with 6 ml of (2:1) (v/v) hexane:chloroform for 1 hour. After separation by centrifuge, the organic layer is transferred to a 10 ml conical tube and 90 ul of 1% formic acid is added. The tube is vortexed for 10 minutes and centrifuged for 5 minutes. About 80 ul of the formic acid layer is transferred into injection vials for HPLC/MS analysis.

[2] = tested on: alpha-adrenergic receptors; conditions: Alpha 2A, Alpha 2B, Alpha 2C tested; cited from earlier work
dopaminergic receptors = conditions: cited from earlier work
Alpha 2C receptor = molecular target: T2, Alpha 2C receptor (Homo sapiens, UniProt P18825); conditions: cited from earlier work
T2 sequence (P18825 1-462): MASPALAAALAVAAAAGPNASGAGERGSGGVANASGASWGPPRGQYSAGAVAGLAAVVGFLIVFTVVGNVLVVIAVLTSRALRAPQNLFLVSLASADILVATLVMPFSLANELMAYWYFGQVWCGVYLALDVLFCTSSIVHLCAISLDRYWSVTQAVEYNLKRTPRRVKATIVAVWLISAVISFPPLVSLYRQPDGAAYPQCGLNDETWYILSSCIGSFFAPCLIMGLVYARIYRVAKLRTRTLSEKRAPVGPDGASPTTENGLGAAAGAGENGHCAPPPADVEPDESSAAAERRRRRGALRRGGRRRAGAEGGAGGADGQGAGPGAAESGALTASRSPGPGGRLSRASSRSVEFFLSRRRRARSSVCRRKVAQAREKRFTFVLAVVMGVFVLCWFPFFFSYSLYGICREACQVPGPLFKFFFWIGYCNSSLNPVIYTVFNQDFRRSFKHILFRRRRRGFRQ

[3] = cited from earlier work; for half-life: in vivo
5-HT7 receptor = 5-HT7 receptor (Homo sapiens, UniProt P34969); conditions: compared with 3-OH gepirone; cited from earlier work
Chain of 5-HT7 receptor (P34969 whole entry): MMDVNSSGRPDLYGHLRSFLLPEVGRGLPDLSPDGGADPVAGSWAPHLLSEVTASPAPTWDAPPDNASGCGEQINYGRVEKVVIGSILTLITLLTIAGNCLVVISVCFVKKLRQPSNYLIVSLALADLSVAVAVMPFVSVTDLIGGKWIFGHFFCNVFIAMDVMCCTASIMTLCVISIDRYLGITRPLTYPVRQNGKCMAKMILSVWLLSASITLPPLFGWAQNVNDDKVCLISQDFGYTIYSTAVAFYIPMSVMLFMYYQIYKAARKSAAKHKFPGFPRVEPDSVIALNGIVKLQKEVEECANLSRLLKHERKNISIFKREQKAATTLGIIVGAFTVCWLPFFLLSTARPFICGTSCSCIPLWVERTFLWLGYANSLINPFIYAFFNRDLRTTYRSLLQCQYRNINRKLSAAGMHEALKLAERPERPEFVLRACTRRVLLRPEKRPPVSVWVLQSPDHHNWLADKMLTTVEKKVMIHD

5-HT2A receptor = 5-HT2A receptor (Homo sapiens, UniProt P28223); conditions: compared with 3-OH gepirone; cited from earlier work
Chain of 5-HT2A receptor (P28223 whole entry): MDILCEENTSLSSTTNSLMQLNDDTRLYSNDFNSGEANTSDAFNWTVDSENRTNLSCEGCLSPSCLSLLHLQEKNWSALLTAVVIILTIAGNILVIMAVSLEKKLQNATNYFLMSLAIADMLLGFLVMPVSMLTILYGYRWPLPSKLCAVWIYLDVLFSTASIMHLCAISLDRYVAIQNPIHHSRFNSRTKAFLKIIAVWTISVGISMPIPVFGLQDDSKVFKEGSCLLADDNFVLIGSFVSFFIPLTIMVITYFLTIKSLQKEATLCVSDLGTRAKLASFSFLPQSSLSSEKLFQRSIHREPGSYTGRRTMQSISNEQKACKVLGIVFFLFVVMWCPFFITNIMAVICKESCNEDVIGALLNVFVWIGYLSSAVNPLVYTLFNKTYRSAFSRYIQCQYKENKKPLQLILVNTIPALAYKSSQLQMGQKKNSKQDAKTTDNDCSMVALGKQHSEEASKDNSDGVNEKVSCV

SMILES | selectivity among the serotonergic receptor subtypes (5-HT1A receptor) | plasma levels of 3-OH gepirone over time [1] | affinity at alpha-adrenergic receptors [2] | dopaminergic binding (dopaminergic receptors) | binding at the Alpha 2C receptor (Alpha 2C receptor) | half-life [3] | interaction with the 5-HT7 receptor (5-HT7 receptor) | bioavailability ([3]; delivered orally) | interaction with the 5-HT2A receptor (5-HT2A receptor)
CC1(C)CC(=O)N(CCCCN2CCN(c3ncccn3)CC2)C(=O)C1O (centres unmarked) [3-OH gepirone, 4,4,-dimethyl-3-hydroxy-1-[4-[4-(2-pyrimidinyl)-1-piperazinyl]butyl]-2,6-piperidinedione] | highly selective for the 5-HT1A receptor | available quickly and persists in the plasma for extended periods of time | did not display significant affinity | insignificant dopaminergic binding | weak binding |  |  |  | 
O=C1CC2(CCCC2)CC(=O)N1CCCCN1CCN(c2ncccn2)CC1 [buspirone] |  |  |  |  |  | very short | much more specifically and at lower concentrations than does 3-OH gepirone |  | 
CC1(C)CC(=O)N(CCCCN2CCN(c3ncccn3)CC2)C(=O)C1 [gepirone, 4-dimethyl-1-[4-[4-(2-pyrimidinyl)-1-piperazinyl]butyl]-2,6-piperidinedione] |  |  |  |  |  | very short | much more specifically and at lower concentrations than does 3-OH gepirone | 14-18% | much more specifically and at lower concentrations than does 3-OH gepirone
